Measurements as given in ChEMBL document CHEMBL6120962, “New Mitochondria-Targeted Fisetin Derivative Compromises Mitophagy and Limits Survival of Drug-Induced Senescent Breast Cancer Cells” (J Med Chem, 2024).
The source made the active and inactive calls. No cut-off for these calls is given here.

How the values were obtained:
[1] = system: HCC1428; assay: Anticancer activity against ER-positive human HCC1428 cells assessed as effect on metabolic activity upto 10 uM incubated for 24 hrs by MTT assay; assay type: functional, cell-based
[2] = system: Mitochondrial membrane; assay: Induction of mitochondrial membrane potential depolarization in human ZR-75-30 cells at 1 uM incubated for 24 hrs by 7-AAD staining based flow cytometric analysis; assay type: cell membranes
[3] = system: Mitochondrial membrane; assay: Induction of mitochondrial membrane potential depolarization in human HCC1428 cells assessed as increase in fraction of depolarized dead cells at 5 uM incubated for 24 hrs by 7-AAD staining based flow cytometric analysis; assay type: cell membranes
[4] = system: Mitochondrial membrane; assay: Induction of mitochondrial membrane potential depolarization in tamoxifen-induced senescent human HCC1500 cells assessed as increase in depolarized dead cell level at 1 to 5 uM incubated for 24 hrs by 7-AAD staining based flow cytometric analysis; assay type: cell membranes; conditions: dose 1-5 µM
[5] = system: Mitochondrial membrane; assay: Induction of mitochondrial membrane potential depolarization in tamoxifen-induced senescent human CAMA-1 cells assessed as increase in depolarized dead cell level at 1 to 5 uM incubated for 24 hrs by 7-AAD staining based flow cytometric analysis; assay type: cell membranes; conditions: dose 1-5 µM
[6] = system: Mitochondrial membrane; assay: Induction of mitochondrial membrane potential depolarization in tamoxifen-induced senescent human HCC1428 cells assessed as increase in depolarized dead cell level at 1 to 5 uM incubated for 24 hrs by 7-AAD staining based flow cytometric analysis; assay type: cell membranes; conditions: dose 1-5 µM
[7] = system: HCC1428; assay: Induction of mitochondrial dysfunction in tamoxifen-induced senescent human HCC1428 cells assessed as decrease in coupling efficiency respiration at 5 uM incubated for 6 hrs by real-time analysis; assay type: functional, cell-based
[8] = system: MCF-10F; assay: Induction of mitochondrial dysfunction in tamoxifen-induced senescent human MCF-10F cells assessed as decrease in maximal respiration at 5 uM incubated for 6 hrs by real-time analysis; assay type: functional, cell-based
[9] = system: MCF-10F; assay: Induction of mitochondrial dysfunction in tamoxifen-induced senescent human MCF-10F cells assessed as increase in proton leak at 5 uM incubated for 6 hrs by real-time analysis; assay type: functional, cell-based
[10] = system: HCC1428; assay: Induction of mitochondrial dysfunction in human HCC1428 cells assessed as decrease in maximal respiration at 5 uM incubated for 6 hrs by real time analysis; assay type: functional, cell-based
[11] = system: HCC1428; assay: Induction of mitochondrial dysfunction in human HCC1428 cells assessed as decrease in spare respiratory capacity at 5 uM incubated for 6 hrs by real time analysis; assay type: functional, cell-based
[12] = system: HCC1428; assay: Induction of mitochondrial dysfunction in human HCC1428 cells assessed as decrease in coupling efficiency at 5 uM incubated for 6 hrs by real time analysis; assay type: functional, cell-based
[13] = system: HCC1428; assay: Induction of autophagosome formation in tamoxifen-induced senescent human HCC1428 cells assessed as increase in ubiquitin level at 1 to 5 uM by immunostaining based imaging cytometric analysis; assay type: functional, cell-based; conditions: dose 1-5 µM
[14] = system: HCC1428; assay: Induction of autophagosome formation in tamoxifen-induced senescent human HCC1428 cells assessed as increase in LC3B level at 1 to 5 uM by immunostaining based imaging cytometric analysis; assay type: functional, cell-based; conditions: dose 1-5 µM
[15] = system: HCC1500; assay: Induction of oxidative stress in tamoxifen-induced senescent human HCC1500 cells assessed as increase in mitochondrial superoxide production at 1 to 5 uM incubated for 24 hrs by MitoSOX red superoxide indicator based fluorescence analysis; assay type: functional, cell-based; conditions: dose 1-5 µM
[16] = system: ZR-75-30; assay: Induction of oxidative stress in tamoxifen-induced senescent human ZR-75-30 cells assessed as increase in mitochondrial superoxide production at 1 to 5 uM incubated for 24 hrs by MitoSOX red superoxide indicator based fluorescence analysis; assay type: functional, cell-based; conditions: dose 1-5 µM
[17] = system: HCC1428; assay: Induction of apoptosis in tamoxifen-induced senescent human HCC1428 cells assessed as phosphatidylserine externalization at 1 to 5 uM incubated for 24 hrs by Annexin V-FITC staining based flow cytometric analysis; assay type: functional, cell-based; conditions: dose 1-5 µM
[18] = system: MCF-10F; assay: Induction of apoptosis in tamoxifen-induced senescent human MCF-10F cells assessed as assessed as phosphatidylserine externalization at 1 to 5 uM incubated for 24 hrs by Annexin V-FITC staining based flow cytometric analysis; assay type: functional, cell-based; conditions: dose 1-5 µM
[19] = system: ZR-75-30; assay: Induction of […] in human tamoxifen-induced senescent human ZR-75-30 cells at 1 to 5 uM by incubated for 24 hrs Annexin V-FITC staining based flow cytometric analysis; assay type: functional, cell-based; conditions: dose 1-5 µM
[20] = molecular target: T1, Receptor-interacting serine/threonine-protein kinase 1 (Homo sapiens) (UniProt Q13546); assay: Induction of RIP1 phosphorylation in human HCC1428 cells at 1 to 5 uM incubated for 24 hrs by Western blot analysis; assay type: cell-based; conditions: dose 1-5 µM
T1 sequence (whole entry): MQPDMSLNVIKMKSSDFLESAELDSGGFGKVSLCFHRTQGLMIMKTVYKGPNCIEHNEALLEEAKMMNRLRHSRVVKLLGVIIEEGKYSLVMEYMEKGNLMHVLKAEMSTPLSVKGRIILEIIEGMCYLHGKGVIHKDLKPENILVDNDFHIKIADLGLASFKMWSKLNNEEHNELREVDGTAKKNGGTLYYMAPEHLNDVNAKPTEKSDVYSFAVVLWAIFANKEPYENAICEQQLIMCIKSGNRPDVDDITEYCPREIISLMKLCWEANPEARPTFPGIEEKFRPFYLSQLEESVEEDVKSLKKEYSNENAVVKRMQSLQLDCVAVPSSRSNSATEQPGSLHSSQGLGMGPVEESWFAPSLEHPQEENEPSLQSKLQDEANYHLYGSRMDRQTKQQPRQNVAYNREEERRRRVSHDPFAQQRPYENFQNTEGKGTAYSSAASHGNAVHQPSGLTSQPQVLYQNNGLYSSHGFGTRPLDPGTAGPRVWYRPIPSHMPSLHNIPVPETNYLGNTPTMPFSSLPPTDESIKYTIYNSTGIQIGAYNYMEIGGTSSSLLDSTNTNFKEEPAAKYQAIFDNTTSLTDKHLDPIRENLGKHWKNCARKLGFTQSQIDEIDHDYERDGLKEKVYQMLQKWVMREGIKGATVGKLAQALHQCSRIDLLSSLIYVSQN

[21] = system: HCC1428; assay: Induction of apoptosis in tamoxifen-induced senescent human HCC1428 cells assessed as increase in caspase 9 level incubated for 24 hrs by immunostaining based imaging cytometric analysis; assay type: functional, cell-based
[22] = system: HCC1500; assay: Induction of apoptosis in human HCC1500 cells assessed as decrease in Bcl2 level at 1 to 5 uM incubated for 24 hrs by Western blot analysis; assay type: functional, cell-based; conditions: dose 1-5 µM
[23] = system: MCF-10F; assay: Induction of apoptosis in human MCF-10F cells assessed as decrease in Bcl2 level at 1 to 5 uM incubated for 24 hrs by Western blot analysis; assay type: functional, cell-based; conditions: dose 1-5 µM
[24] = system: ZR-75-30; assay: Induction of apoptosis in tamoxifen-induced senescent human ZR-75-30 cells assessed as decrease in HSP90 level incubated for 24 hrs by immunostaining based imaging cytometric analysis; assay type: functional, cell-based
[25] = molecular target: RAC-alpha serine/threonine-protein kinase (Homo sapiens) (UniProt P31749); assay: Binding affinity to recombinant human AKT (14 to 276 residues) assessed as interaction by measuring decrease in chemiluminescence signal at 0.01 to 5 uM incubated overnight by dot-blot analysis; conditions: dose 0.01-5 µM
Sequence of RAC-alpha serine/threonine-protein kinase (Homo sapiens) (P31749 whole entry, the tested form may be a part): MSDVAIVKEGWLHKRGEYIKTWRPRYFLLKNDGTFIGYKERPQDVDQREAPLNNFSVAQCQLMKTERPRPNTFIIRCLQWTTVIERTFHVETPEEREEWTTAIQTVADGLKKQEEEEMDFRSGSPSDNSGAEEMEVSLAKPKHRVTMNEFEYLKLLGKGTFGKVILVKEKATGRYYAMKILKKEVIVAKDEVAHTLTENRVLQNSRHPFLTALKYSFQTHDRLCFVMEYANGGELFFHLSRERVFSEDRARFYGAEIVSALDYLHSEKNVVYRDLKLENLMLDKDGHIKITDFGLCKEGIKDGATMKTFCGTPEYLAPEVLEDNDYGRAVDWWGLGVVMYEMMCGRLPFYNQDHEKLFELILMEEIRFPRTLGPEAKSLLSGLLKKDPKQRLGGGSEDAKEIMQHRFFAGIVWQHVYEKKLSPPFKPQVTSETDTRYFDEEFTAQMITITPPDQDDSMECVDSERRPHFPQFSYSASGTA

[26] = molecular target: Apoptosis regulator Bcl-2 (Homo sapiens) (UniProt P10415); assay: Binding affinity to recombinant human Bcl-2 assessed as interaction by measuring decrease in chemiluminescence signal at 0.01 to 5 uM incubated overnight by dot-blot analysis; conditions: dose 0.01-5 µM
Sequence of Apoptosis regulator Bcl-2 (Homo sapiens) (P10415 whole entry): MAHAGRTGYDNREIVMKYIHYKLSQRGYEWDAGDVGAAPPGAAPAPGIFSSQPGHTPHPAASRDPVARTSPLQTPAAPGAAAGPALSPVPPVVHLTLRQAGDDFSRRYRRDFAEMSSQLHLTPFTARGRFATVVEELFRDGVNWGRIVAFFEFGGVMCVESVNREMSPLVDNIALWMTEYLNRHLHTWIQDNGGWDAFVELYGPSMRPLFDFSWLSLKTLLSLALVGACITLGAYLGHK

[27] = system: HCC1428; assay: Induction of apoptosis in tamoxifen-induced senescent human HCC1428 cells assessed as decrease in phosphorylated AKT level at 1 to 5 uM incubated for 24 hrs by Western blotting analysis; assay type: functional, cell-based; conditions: dose 1-5 µM

Activity [2]: Active | Activity [3]: Active | Activity [4]: Active | Activity [5]: Active | Activity [6]: Active | Activity [20]: inactive | Activity [25]: Active | Activity [26]: Active
SMILES: CC(=O)Oc1ccc2c(=O)c(OCCCC[P+](c3ccccc3)(c3ccccc3)c3ccccc3)c(-c3ccc4c(c3)OC(c3ccccc3)(c3ccccc3)O4)oc2c1.[I-]
Activity [1]: Active | Activity [7]: Active | Activity [8]: inactive | Activity [9]: inactive | Activity [10]: Active | Activity [11]: Active | Activity [12]: Active | Activity [13]: inactive | Activity [14]: inactive | Activity [15]: Active | Activity [16]: Active | Activity [17]: Active | Activity [18]: Active; Slight Effect Observed | Activity [19]: Active | Activity [21]: Active | Activity [22]: Active | Activity [23]: inactive | Activity [24]: Active | Activity [27]: Active
